We go through 26 molecules from article PMC7462607 (eLife, 2020).

In one data set the test system is CCNK-luc reporter. The experiment in a line: CCNK-luc degradation assay. The data set is classed as cell-based, Homo sapiens. The method, then:
The ORF for CCNK was fused with the firefly luciferase (luc) sequence and inserted into the pCDNA3.1 vector. For setting up cells for co-transfection, 0.6 million 293 T cells were seeded per well in 6-well plates and allowed to attach to plates overnight. These cells were then transfected with 50 ng of pCDNA3.1-3xFLAG-CDK12 kinase domain, 50 ng of pCDNA3.1-CCNK-luc, and 400 ng of the empty pCDNA3.1 vector. Twenty-four hours later, transfected cells were dissociated by trypsin digestion and then plated in 96-well white plates. After overnight attachments, cells were then treated with HQ461 and its analog derivatives for 8 hr followed by measurements of luciferase activity with Bright-Glo luciferase assay system (Promega, Madison, USA). Half maximal CCNK-degradation concentrations (DC50) of HQ461 and its active analogs were interpolated by curve fitting with GraphPad Prism using baseline correction (by normalizing to DMSO control), the asymmetric (five parameter) equation, and least squares fit.

The next data set deals with CCNK. Put plainly: Western blotting of CCNK protein level in A549 cells. The data set is classed as cell-based, Homo sapiens. Conditions: for CCNK degradation by compound alone: A549; for effect on HQ461-induced CCNK degradation: A549 treated with inhibitor prior to HQ461 treatment; for effect on HQ461-dependent CCNK degradation: A549 treated with HQ461 plus inhibitor. The method, then: Standard SDS-PAGE and western blotting procedures were used with the following modifications. For preparation of total lysates, cells were rinsed with DPBS to remove residual medium and then lysed in 20 mM HEPES-NaOH, pH 8.0, 10 mM NaCl, 2 mM MgCl2, 1% SDS freshly supplemented with 0.5 units/µL of benzonase and 1x cOmplete, Mini, EDTA-free protease inhibitor cocktail (Roche, Bazel, Switzerland). Protein concentrations of the resulting lysates were quantified by the BCA method. Between 30 to 60 µg of proteins were resolved on SDS-PAGE and transferred to nitrocellulose membranes with a pore size of 0.5 μm. Membranes were blocked in 5% nonfat milk PBST (0.1% v/v Tween-20) for 30 min before blotting with antibodies. The following primary antibodies were used by dilution in 5% nonfat milk PBST: anti-NRF2 (Abcam, Cambridge, UK, ab62352, 1:4,000), anti-β-Actin-HRP (Huaxingbio, Beijing, China, HX18271,1:10,000), anti-α-Tubulin-HRFP (MBL Life Science, Japan, PM054-7, 1:10,000), anti-DDB1 (Abcam, Cambridge, UK, ab109027, 1:10,000), anti-RBX1 (Proteintech, Wuhan, China, 14895–1-AP, 1:5,000), anti-UBE2G1 (Proteintech, Wuhuan, China, 12012–1-AP, 1:2,000), anti-CDK12 (Cell Signaling Technology, Danvers, USA, 11973S,1:4,000), anti-CCNK (Bethyl lab, Montgomery, USA, A301-939A-T,1:4,000), anti-FLAG-HRP (Sigma-Aldrich, MO, USA, A8592, 1:10,000), anti-HA (BioLegend, San Diego, USA, 901533, 1:4,000), anti-RNA polymerase II subunit B1 (phospho CTD Ser-2) clone 3E10 (Sigma-Aldrich, MO, USA, 04–1571, 1:5,000), and anti-RNA polymerase II CTD repeat YSPTSPS antibody clone 8WG16 (Abcam, Cambridge, UK, ab817, 1:5,000). The following HRP-linked secondary antibodies were used by dilution in PBST: anti-rabbit IgG (Cell Signaling Technology, Danvers, USA, 7074S, 1:10,000), anti-mouse IgG (Zsbio, Beijing, China, ZB-2305, 1:10,000), and anti-rat IgG, (Sino Biological, Beijing, China, SSA005, 1:10,000). M5 HiPer ECL Western HRP Substrate (Mei5bio, Beijing, China, MF074-01) was used for the detection of HRP enzymatic activity. Western blot images were taken with a VILBER FUSION FX7 imager.

Data set [1] addresses T1, FLAG-Avi-DDB1 and His-CDK12KD/His-CCNKΔC (WT) (Homo sapiens, UniProt Q9NYV4).
T1 construct: Human CDK12KD (residues 715–1052); made in house; host or cells: Sf9 or High Five (CDK12KD/CCNKΔC, co-infected with yeast CAK1); 293F with BirA (FLAG-Avi-DDB1)
Put plainly: AlphaScreen assay, WT. As to conditions: preincubated with 5 µM THZ531. The class given is binding. The method, then:
Biotinylated FLAG-Avi-DDB1 (3 µM) and 6xHis-CDK12KD/6xHis-CCNKΔC (WT or G731E/R mutants) (3 µM) were mixed in an assay buffer (50 mM HEPES, pH7.5, 300 mM NaCl, 0.5 mM TCEP, 0.1% NP-40, 0.1% BSA) and a serial dilution of HQ461.The protein-compound mix was transferred to 384-well plates (Corning, Corning, USA); 15 μL per well. After a 1 hr room temperature incubation, 10 µL of nickel chelate (Ni-NTA) acceptor beads (PerkinElmer, Waltham, USA, Waltham, USA, 6760619C) (1:100 diluted with assay buffer) was added per well. After incubation in the dark for 1 hr at room temperature, 10 μL of streptavidin donor beads (PerkinElmer, Waltham, USA, 6760619C) (1:100 diluted in assay buffer) was added per well. After another 1 hr incubation, AlphaScreen signal was measured on the EnVision multimode plate reader (PerkinElmer, Waltham, USA). For THZ531 competition, FLAG-Avi-DDB1, 6xHis-CDK12KD/6xHis-CCNKΔC mix was preincubated with 5 μM of THZ531 for 30 min on ice followed by the procedures described above.

Data set [2] deals with T2, DDB1ΔBPB (DDB1 without its BPB domain) (human, UniProt Q16531-1 1-1140, removing residues 400–704).
T2 construct: also called Strep-8×His-DDB1ΔBPB
Put plainly: differential scanning fluorimetry; 5 µM DDB1ΔBPB with 10 µM HBx peptide; SYPRO Orange; 50 mM HEPES pH 7.5, 300 mM NaCl, 0.5 mM TCEP; 10°C to 95°C. Conditions: both partners purified. Background: In DSF a fluorescence change marks the thermal transition of the protein.

Where [3] appears, read: 293T, 8 hr, read-out: DC50 (half maximal CCNK-degradation concentration).

Where two headings read alike, the source gives them in different places.

T1 sequence (Q9NYV4 715-1052 limits assumed, stated change not applied): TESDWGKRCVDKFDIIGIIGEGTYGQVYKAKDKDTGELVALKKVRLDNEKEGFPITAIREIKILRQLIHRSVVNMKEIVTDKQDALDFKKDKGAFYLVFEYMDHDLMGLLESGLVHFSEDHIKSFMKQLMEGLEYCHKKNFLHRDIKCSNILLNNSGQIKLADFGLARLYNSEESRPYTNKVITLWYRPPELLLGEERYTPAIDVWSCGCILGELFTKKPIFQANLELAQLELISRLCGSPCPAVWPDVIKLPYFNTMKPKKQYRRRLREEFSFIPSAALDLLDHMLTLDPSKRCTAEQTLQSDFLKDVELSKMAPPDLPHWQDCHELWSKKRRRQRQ
T1 sequence (O75909 11-267 partner limits assumed): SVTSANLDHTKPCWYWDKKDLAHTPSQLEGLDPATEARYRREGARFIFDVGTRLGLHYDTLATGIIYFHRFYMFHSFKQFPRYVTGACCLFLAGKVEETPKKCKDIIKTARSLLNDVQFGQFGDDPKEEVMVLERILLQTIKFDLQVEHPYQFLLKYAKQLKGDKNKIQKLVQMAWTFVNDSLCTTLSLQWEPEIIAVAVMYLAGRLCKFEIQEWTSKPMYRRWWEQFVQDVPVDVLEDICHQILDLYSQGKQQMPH
T1 sequence (Q16531 whole entry partner, the tested form may be a part): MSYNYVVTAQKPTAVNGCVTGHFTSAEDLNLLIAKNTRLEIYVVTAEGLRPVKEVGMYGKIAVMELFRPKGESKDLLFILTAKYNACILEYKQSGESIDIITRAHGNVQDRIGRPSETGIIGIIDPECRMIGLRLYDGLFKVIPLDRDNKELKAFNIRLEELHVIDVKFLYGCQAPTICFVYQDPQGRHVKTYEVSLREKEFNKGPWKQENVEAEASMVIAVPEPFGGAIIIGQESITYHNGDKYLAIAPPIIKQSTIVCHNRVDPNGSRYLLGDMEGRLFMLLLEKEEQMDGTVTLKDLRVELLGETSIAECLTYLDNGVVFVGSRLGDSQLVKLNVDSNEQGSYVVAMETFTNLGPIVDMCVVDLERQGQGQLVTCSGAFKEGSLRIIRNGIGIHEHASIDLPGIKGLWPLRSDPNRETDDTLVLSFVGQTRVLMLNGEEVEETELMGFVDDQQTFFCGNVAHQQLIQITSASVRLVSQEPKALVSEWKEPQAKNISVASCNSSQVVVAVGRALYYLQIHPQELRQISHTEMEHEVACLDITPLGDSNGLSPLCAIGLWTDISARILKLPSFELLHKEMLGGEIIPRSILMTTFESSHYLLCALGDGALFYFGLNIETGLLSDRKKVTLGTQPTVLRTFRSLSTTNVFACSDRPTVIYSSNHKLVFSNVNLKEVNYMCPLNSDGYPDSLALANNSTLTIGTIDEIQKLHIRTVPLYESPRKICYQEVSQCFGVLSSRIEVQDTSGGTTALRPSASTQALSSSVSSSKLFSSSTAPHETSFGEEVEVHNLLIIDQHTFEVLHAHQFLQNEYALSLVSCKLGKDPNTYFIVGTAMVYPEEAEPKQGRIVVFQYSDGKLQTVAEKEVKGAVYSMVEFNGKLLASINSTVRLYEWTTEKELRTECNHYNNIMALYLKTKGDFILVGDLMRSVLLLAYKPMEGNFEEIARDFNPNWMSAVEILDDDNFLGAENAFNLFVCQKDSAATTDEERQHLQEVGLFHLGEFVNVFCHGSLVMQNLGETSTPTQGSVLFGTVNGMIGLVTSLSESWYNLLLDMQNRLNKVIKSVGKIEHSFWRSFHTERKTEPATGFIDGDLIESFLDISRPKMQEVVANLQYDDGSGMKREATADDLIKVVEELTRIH
T2 sequence (Q16531 other isoform, or with tags, fused parts or gaps with the stated changes): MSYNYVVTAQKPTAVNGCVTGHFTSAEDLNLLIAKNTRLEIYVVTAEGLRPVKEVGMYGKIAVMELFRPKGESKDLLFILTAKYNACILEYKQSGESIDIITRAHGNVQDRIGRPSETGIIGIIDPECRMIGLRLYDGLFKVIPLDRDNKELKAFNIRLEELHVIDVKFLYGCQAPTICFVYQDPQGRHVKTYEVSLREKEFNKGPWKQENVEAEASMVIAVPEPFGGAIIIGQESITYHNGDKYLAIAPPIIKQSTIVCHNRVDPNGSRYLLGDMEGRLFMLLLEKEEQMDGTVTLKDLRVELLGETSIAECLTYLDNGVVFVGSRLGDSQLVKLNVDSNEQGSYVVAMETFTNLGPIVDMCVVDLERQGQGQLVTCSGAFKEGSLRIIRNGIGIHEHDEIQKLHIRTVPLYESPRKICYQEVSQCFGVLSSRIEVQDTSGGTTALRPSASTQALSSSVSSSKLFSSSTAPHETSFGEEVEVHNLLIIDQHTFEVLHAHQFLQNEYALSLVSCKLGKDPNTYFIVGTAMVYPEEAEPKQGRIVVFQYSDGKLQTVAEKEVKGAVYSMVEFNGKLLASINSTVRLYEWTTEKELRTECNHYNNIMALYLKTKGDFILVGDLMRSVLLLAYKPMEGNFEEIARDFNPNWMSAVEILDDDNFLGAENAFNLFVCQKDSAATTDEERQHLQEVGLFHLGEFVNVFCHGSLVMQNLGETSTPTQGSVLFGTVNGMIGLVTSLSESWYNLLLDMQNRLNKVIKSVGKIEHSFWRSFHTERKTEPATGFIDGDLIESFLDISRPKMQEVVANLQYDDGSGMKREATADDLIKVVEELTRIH

On to `CCc1ccccc1NC(=O)Cc1csc(Nc2ccccn2)n1` [HQ023], for which the “Dmax (10 μM), percentage of CCNK degradation relative to DMSO control” value with CCNK-luc reporter (8 hr) is 3.0%.
Still for that read-out and setting: to `Cc1cccc(Nc2nc(CC(=O)NC(C)c3ccccc3)cs2)n1` (centres unmarked) [HQ015] belongs 8.6%; to `O=C(Cc1csc(Nc2ccccn2)n1)NCc1nc2ccccc2[nH]1` [HQ020], 15.5%.
On to `Cc1cnc(NC(=O)Cc2csc(Nc3cccc(C(F)(F)F)n3)n2)s1` [HQ009, N-(5-methylthiazol-2-yl)−2-(2-((6-(trifluoromethyl)pyridin-2-yl)amino)thiazol-4-yl)acetamide], for which, in the data set on CCNK-luc reporter (setting [3]), the DC50 turned out to be 2360 nM.
Consider `Cc1ccnc(Nc2nc(CC(=O)Nc3nc4c(s3)CCCC4)cs2)c1` [HQ018], for which, in the data set with CCNK-luc reporter (8 hr), the “Dmax (10 μM), percentage of CCNK degradation relative to DMSO control” value turned out to be 18.8%.
Regarding `Cc1cnc(NC(=O)Cc2csc(N)n2)s1` [HQ011, 2-(2-aminothiazol-4-yl)-N-(5-methylthiazol-2-yl)acetamide], the “CCNK degradation activity relative to HQ461” value in the data set on CCNK-luc reporter is “losses in activity”.
As for `CN(C)C/C=C/C(=O)Nc1ccc(C(=O)N2CCC[C@@H](Nc3ncc(Cl)c(-c4c[nH]c5ccccc45)n3)C2)cc1` [THZ531], in the data set with CCNK, the “CCNK degradation by compound alone” value was “Neither THZ531 nor dinaciclib treatment caused CCNK degradation” and the “effect on HQ461-induced CCNK degradation” value was “prevented CCNK degradation”. In addition, in data set [1], the “effect on HQ461-dependent formation of the CDK12KD/CCNKΔC/DDB1 complex” value was “inhibited HQ461-dependent formation of the CDK12KD/CCNKΔC/DDB1 complex”.
Regarding `CC(=O)Nc1nc(CC(=O)Nc2ncc(C)s2)cs1` [HQ019], the “CCNK degradation activity relative to HQ461” value in the data set on CCNK-luc reporter is “losses in activity”. Also, the “Dmax (10 μM), percentage of CCNK degradation relative to DMSO control” value in the data set with CCNK-luc reporter (8 hr) turned out to be 62.0%.
With `NC(=O)c1ccccc1NC(=O)Cc1csc(Nc2ccccn2)n1` [HQ021], in the data set on CCNK-luc reporter (8 hr), the “Dmax (10 μM), percentage of CCNK degradation relative to DMSO control” value worked out at 7.8%.
As to `Cc1cnc(NC(=O)Cc2csc(Nc3cccc(N)n3)n2)s1` [HQ007, 2-(2-((6-aminopyridin-2-yl)amino)thiazol-4-yl)-N-(5-methylthiazol-2-yl)acetamide], in the data set on CCNK-luc reporter (setting [3]), the DC50 was 561 nM.
As to `Cc1cnc(NC(=O)Cc2csc(Nc3cccc(CO)n3)n2)s1` [HQ005, 2-(2-((6-(hydroxymethyl)pyridin-2-yl)amino)thiazol-4-yl)-N-(5-methylthiazol-2-yl)acetamide], in the data set with CCNK-luc reporter, the “fold increase in potency relative to HQ461” value came to 3 fold. The “Dmax (10 μM), percentage of CCNK degradation relative to DMSO control” value in the data set with CCNK-luc reporter (8 hr) was 86.5%. For the same molecule, the DC50 in the data set on CCNK-luc reporter (read-out: DC50) was 41 nM.
Turning to `CCc1cnn2c(NCc3ccc[n+]([O-])c3)cc(N3CCCC[C@H]3CCO)nc12` [dinaciclib], in the data set with CCNK, the “CCNK degradation by compound alone” value was “Neither THZ531 nor dinaciclib treatment caused CCNK degradation” and the “effect on HQ461-induced CCNK degradation” value is listed as “prevented CCNK degradation”.
On to `COc1cccc(Nc2nc(CC(=O)Nc3ncc(C)s3)cs2)n1` [HQ006, 2-(2-((6-methoxypyridin-2-yl)amino)thiazol-4-yl)-N-(5-methylthiazol-2-yl)acetamide], for which the DC50 in the data set with CCNK-luc reporter (setting [3]) stood at 466 nM.
Regarding `Cc1cccc(Nc2nc(CC(N)=O)cs2)n1` [HQ017], the “Dmax (10 μM), percentage of CCNK degradation relative to DMSO control” value in the data set with CCNK-luc reporter (8 hr) came to 4.2%.
For the molecule `Cc1cnc(NC(=O)Cc2csc(NC(=O)c3cccc(Br)n3)n2)s1` [HQ014, 6-bromo-N-(4-(2-((5-methylthiazol-2-yl)amino)−2-oxoethyl)thiazol-2-yl) Picolinamide], the “CCNK degradation activity relative to HQ461” value with CCNK-luc reporter is listed as “losses in activity”. The “Dmax (10 μM), percentage of CCNK degradation relative to DMSO control” value in the data set with CCNK-luc reporter (8 hr) is given as 9.9%.
`Cc1cnc(NC(=O)Cc2csc(Nc3cccc(F)n3)n2)s1` [HQ001, 2-(2-((6-fluoropyridin-2-yl)amino)thiazol-4-yl)-N-(5-methylthiazol-2-yl)acetamide]: in the data set with CCNK-luc reporter (setting [3]), the DC50 came to 300 nM.
Turning to `NS(=O)(=O)OC[C@@H]1C[C@@H](n2ccc3c(N[C@H]4CCc5ccccc54)ncnc32)C[C@@H]1O` [MLN4924], in the data set with CCNK, the “effect on HQ461-dependent CCNK degradation” value is listed as “abrogated HQ461-dependent CCNK degradation”.
Take `CC(C)C[C@H](NC(=O)[C@H](Cc1ccccc1)NC(=O)c1cnccn1)B(O)O` [bortezomib]: the “effect on HQ461-dependent CCNK degradation” value in the data set on CCNK is recorded as “abrogated HQ461-dependent CCNK degradation”.
`NC(=O)CNC(=O)Cc1csc(Nc2ccccn2)n1` [HQ022]: the “Dmax (10 μM), percentage of CCNK degradation relative to DMSO control” value in the data set on CCNK-luc reporter (8 hr) is on record as 25.7%.
As for `Nc1nc(CC(=O)Nc2nc(-c3ccco3)cs2)cs1` [HQ013, 2-(2-aminothiazol-4-yl)-N-(4-(furan-2-yl)thiazol-2-yl)acetamide], the “Dmax (10 μM), percentage of CCNK degradation relative to DMSO control” value in the data set with CCNK-luc reporter (8 hr) was determined as 8.6%.
For the molecule `CCc1cccc(Nc2nc(CC(=O)Nc3ncc(C)s3)cs2)n1` [HQ004, 2-(2-((6-ethylpyridin-2-yl)amino)thiazol-4-yl)-N-(5-methylthiazol-2-yl)acetamide], the DC50 in the data set with CCNK-luc reporter (setting [3]) worked out at 542 nM.
`Cc1cnc(NC(=O)Cc2csc(Nc3ccccn3)n2)s1` [HQ010, N-(5-methylthiazol-2-yl)−2-(2-(pyridin-2-ylamino)thiazol-4-yl)acetamide]: in the data set on CCNK-luc reporter, the “fold increase in DC50 relative to HQ461” value was found to be 6 fold. In the data set with CCNK-luc reporter (setting [3]), the DC50 amounted to 811 nM.
On the same counts, the results for `Cc1cnc(NC(=O)Cc2csc(Nc3cccc(-n4cccn4)n3)n2)s1` [HQ008, 2-(2-((6-(1H-pyrazol-1-yl)pyridin-2-yl)amino)thiazol-4-yl)-N-(5-methylthiazol-2-yl)acetamide] are 38 fold and 5030 nM.
On to `Cc1cnc(NC(=O)Cc2csc(Nc3cccc(Cl)n3)n2)s1` [HQ002, 2-(2-((6-chloropyridin-2-yl)amino)thiazol-4-yl)-N-(5-methylthiazol-2-yl)acetamide], for which the DC50 in the data set on CCNK-luc reporter (setting [3]) is 471 nM.
In the case of `Cc1cnc(NC(=O)Cc2csc(Nc3cccc(Br)n3)n2)s1` [HQ003, 2-(2-((6-bromopyridin-2-yl)amino)thiazol-4-yl)-N-(5-methylthiazol-2-yl)acetamide], in the data set with CCNK-luc reporter (setting [3]), the DC50 was 407 nM.

B1: HBx peptide (α-helical motif of the hepatitis B virus X protein) (peptide)
peptide: ILPKVLHKRTLGLS
notes: peptide corresponding to the α-helical motif of hepatitis B virus X protein (HBx); also called HBx peptides; source: synthetic peptide (ChinaPetides, purity 96%)
On to B1, for which the “increase in Tm” value in data set [2] was 2 °C.
